Several values for one entry are separate records, joined by “and”; a condition that tells them apart may be missing. Equal entries are not always repeated.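 Compound exposure: 48 hours, 5 concentrations, 96-well plates. Abbreviation: GI50, concentration required for 50% inhibition of growth. TGI denotes the concentration required for complete inhibition of growth.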
Tests used:
Assay in all cases: NCI anticancer screen, dose series, 48 h
HCT-15 colon = test system: HCT-15 colon
A498 renal = test system: A498 renal
NCI-H460 lung = test system: NCI-H460 lung
HT29 colon = test system: HT29 colon
COLO 205 colon = test system: COLO 205 colon
HOP-62 NSCLC = test system: HOP-62 NSCLC
LOX IMVI melanoma = test system: LOX IMVI melanoma
M14 melanoma = test system: M14 melanoma

SMILES | GI50 (HCT-15 colon) | TGI (HCT-15 colon) | GI50 (A498 renal) | TGI (A498 renal) | GI50 (NCI-H460 lung) | TGI (NCI-H460 lung) | GI50 (HT29 colon) | TGI (HT29 colon) | GI50 (COLO 205 colon) | TGI (COLO 205 colon) | GI50 (HOP-62 NSCLC) | TGI (HOP-62 NSCLC) | GI50 (LOX IMVI melanoma) | TGI (LOX IMVI melanoma) | GI50 (M14 melanoma) | TGI (M14 melanoma)
COc1cc(Cl)cc(-c2nn(-c3cccc(NC(=O)Nc4cc(C(F)(F)F)cc(C(F)(F)F)c4)c3)cc2-c2ccncc2)c1 | 0.383 µM | 2.74 µM | 0.629 µM | 4.81 µM | 0.374 µM | 1.71 µM | 0.443 µM | 2.38 µM | 0.528 µM | 1.97 µM | 0.851 µM | 2.6 µM | 0.513 µM | 2.29 µM | 0.481 µM | 2.3 µM
O=C(Nc1ccc2[nH]c(=S)sc2c1)Nc1ccccc1F | 20.4 µM | > 100 µM | 40.5 µM | > 100 µM | 38 µM | > 100 µM | 44.3 µM | > 100 µM | 24.5 µM | 65.4 µM | 37.2 µM | > 100 µM | 16.3 µM | > 100 µM | 42.4 µM | > 100 µM
O=P(CCCCP(=O)(c1ccccc1)c1ccccc1)(c1ccccc1)c1ccccc1.[Cl][Sn]([Cl])([c]1ccccc1)[c]1ccccc1 | 1.23 µM | 3.02 µM | 2 µM | 3.76 µM | 6.51 µM | 15.9 µM | 1.89 µM | 4.01 µM | 1.78 µM | 3.98 µM | 0.462 µM | 2.67 µM | 1.29 µM | 5.45 µM | 1.77 µM | 3.81 µM
Nc1nc(N)c2c(n1)NC(c1ccc(F)cc1)C1CCc3ccccc3C1=N2 (stereo unspecified) | 3.99 µM | 16.5 µM | 2.87 µM | 9.08 µM | 3.76 µM | 13.6 µM | 3.84 µM | 15 µM | 1.62 µM | 3.61 µM | 6 µM | 19.8 µM | 3.98 µM | 16.1 µM | 5.51 µM | 18.7 µM
NC1=C(c2nc(-c3ccccc3)cs2)C(c2ccc(Br)cc2)c2c(c3ccccc3oc2=O)O1 (stereo unspecified) | 70.1 µg/mL | > 150 µg/mL | 33.9 µg/mL | > 150 µg/mL | 66.8 µg/mL | > 150 µg/mL | 148 µg/mL | > 150 µg/mL | 78.1 µg/mL | > 150 µg/mL | 116 µg/mL | > 150 µg/mL | > 150 µg/mL | > 150 µg/mL | 90.1 µg/mL | > 150 µg/mL
O=C(c1ccccc1)C(Br)C(Br)c1cccc([N+](=O)[O-])c1 (stereo unspecified) | 1.72 µM | 3.36 µM | – | – | 3.12 µM | 14.9 µM | 3.45 µM | > 100 µM | 1.86 µM | 3.46 µM | 4.26 µM | 14.4 µM | 1.36 µM | 2.77 µM | 1.78 µM | 3.17 µM
COC(=O)CCC1CCC(c2cc(F)ccc2F)(S(=O)(=O)c2ccc(Cl)cc2)CC1 (stereo unspecified) | > 100 µM | > 100 µM | 40.4 µM | > 100 µM | 52.1 µM | > 100 µM | 82.2 µM | > 100 µM | > 100 µM | > 100 µM | > 100 µM | > 100 µM | 91.5 µM | > 100 µM | 55.4 µM | > 100 µM
O=S(=O)(c1cccc2c(Cl)cccc12)N1CCCNCC1 | 14.5 µM | 27.5 µM | 17.9 µM | 32.5 µM | 19.4 µM | 47 µM | 3.62 µM | 18.1 µM | 16.4 µM | 35.4 µM | 11.2 µM | 23.3 µM | 13.4 µM | 26.3 µM | 12.4 µM | 24.9 µM
Oc1[nH]c2c(Br)cccc2c1C1=Nc2ccccc2/C1=N/OCCN1CCCC1 | 0.719 µM and 0.496 µM | – | 0.739 µM and 1.34 µM | 2.21 µM and 7.36 µM | 0.325 µM | 2.4 µM | 0.561 µM | 6.6 µM | 0.524 µM | 4.81 µM | 0.704 µM | 2.65 µM | 0.626 µM | 2.45 µM | 1.94 µM | –
CCCCCCCCCCCCOC1C(C(COC2OC(C3COC(C)(C)O3)C3OC(C)(C)OC23)NC(=O)NS(=O)(=O)c2ccccc2)OC2OC(C)(C)OC21 (stereo unspecified) | 3.68 µM | 15 µM | 3.87 µM | 11.9 µM | 3.04 µM | 12.6 µM | 4.32 µM | 16.4 µM | 4.37 µM | 20.7 µM | 4.34 µM | 14.5 µM | 5.22 µM | 19.7 µM | 5.23 µM | 18.9 µM
Cc1cc(NCc2cc(Nc3ccnc4cc(Cl)ccc34)ccc2F)nc(N2CCN(C)CC2)n1 | 1.34 µM | 3.45 µM | 1.54 µM | 3.22 µM | 1.5 µM | 3.31 µM | 1.72 µM | 5.13 µM | 1.72 µM | 3.66 µM | 1.62 µM | 4.79 µM | 1.26 µM | 2.65 µM | 1.56 µM | 3.13 µM
COc1cccc2c1C(=O)c1c(O)c3c(c(O)c1C2=O)C[C@@](O)(C(=O)CO)C[C@@H]3O[C@H]1C[C@H](N)[C@@H](O)[C@H](C)O1 | 2.99 µM | 50 µM | 0.134 µM | 1.06 µM | 0.0231 µM | 17.1 µM | – | 7.75 µM | 0.313 µM | 1.23 µM | 0.16 µM | 2.37 µM | 0.0826 µM | 2.57 µM | 0.281 µM | 1.16 µM
CN(C)CC1C(=O)O[C@H]2[C@H]1CC/C(COC(=O)c1cc3ccccc3[nH]1)=C\CC[C@@]1(C)O[C@@H]21 (stereo partly specified) | 0.629 µM | 2.28 µM | 11.1 µM | 23.9 µM | 7.35 µM | 25.6 µM | 0.671 µM | 2.57 µM | 2.16 µM | 5.5 µM | 2.72 µM | 7.98 µM | 0.5 µM | 0.992 µM | 1.76 µM | 4.29 µM
CC(C)c1c(O)ccc2c1CCC1C(C)(C)CCCC21C (stereo unspecified) | – | 34.3 µM | – | – | – | 31.7 µM | – | 32.1 µM | – | 32 µM | – | – | – | 31.1 µM | – | 30.2 µM
Oc1ccccc1CNCC12CC3CC(CC(C3)C1)C2 | 24.8 µM | 91.1 µM | 10.4 µM | 31.5 µM | 23.3 µM | 57.7 µM | 15.2 µM | 47.7 µM | 15.6 µM | 31 µM | 28.8 µM | 84 µM | 20.6 µM | 76 µM | 15.7 µM | 38.3 µM
CCN1C(=O)N(c2ccccc2)C2NC(=S)N(/N=C/C=C/c3ccccc3)C21 (stereo unspecified) | 0.293 µM | > 100 µM | 0.105 µM | 0.699 µM | 0.377 µM | > 36.1 µM | 0.295 µM | > 100 µM | 0.344 µM | 8.7 µM | 0.4 µM | > 100 µM | 0.647 µM | > 100 µM | 0.239 µM | > 100 µM
COc1cc(/C=C/C(=O)c2c(C)nc3ccccc3c2/C=C/c2ccc(C)cc2)cc(OC)c1OC | 1.53 µM | 3.62 µM | 2 µM | 4.87 µM | 2.06 µM | 5.09 µM | 2.81 µM | 14 µM | 2.53 µM | 6.09 µM | 3.1 µM | 9.94 µM | 1.45 µM | 2.76 µM | 2.18 µM | 5.03 µM
CNC(=O)CC1NC(=O)c2csc(n2)-c2ccc(-c3nc(C4=NC(C(=O)N5CCCC5C(N)=O)CO4)cs3)nc2-c2csc(n2)-c2csc(n2)C(C(C)C)NC(=O)CNC(=O)c2csc(n2)C(C(C)C)NC(=O)c2nc1sc2C (stereo unspecified) | > 25 µM | > 25 µM | > 25 µM | 5.08 µM and > 25 µM | > 25 µM | > 25 µM | < 0.001 µM | – | > 25 µM | – | – | – | > 25 µM | > 25 µM | – | –
COC(=O)C1=C(C(=O)OC)SC(=C(Cl)C(=S)Nc2ccccc2O)S1 | 17.7 µM | > 50 µM | – | – | 11.5 µM | > 50 µM | 30.2 µM | > 50 µM | 16.2 µM | > 50 µM | 0.354 µM | 11.2 µM | 12.9 µM | 24.5 µM | 0.352 µM | 12.7 µM
OC(CNCC1CCCO1)Cn1c2ccc(Cl)cc2c2cc(Cl)ccc21 (stereo unspecified) | 1.67 µM | 3.26 µM | 1.06 µM | 8.83 µM | 1.95 µM | 3.75 µM | 1.94 µM | 3.72 µM | 1.92 µM | 3.61 µM | 1.72 µM | 3.39 µM | 1.65 µM | 3 µM | – | –
Oc1ccccc1C=Nc1nc(SCc2ccccc2)nc2[nH]ncc12 | > 100 µM | > 100 µM | – | – | 36.9 µM | > 100 µM | 54.6 µM | > 100 µM | 29.1 µM | > 100 µM | > 100 µM | > 100 µM | 56.3 µM | > 100 µM | 38.4 µM | > 100 µM
COc1ccc(/C(=N\O)c2cc(C)c(OC)c(C)c2)cc1O | < 0.01 µM | > 100 µM | – | – | < 0.01 µM | 15.6 µM | 0.0446 µM | 11.8 µM | – | – | 0.0215 µM | > 100 µM | 0.0189 µM | > 100 µM | < 0.01 µM | > 100 µM

Source: PubChem BioAssay (NCI)
